From patent US9676811B2, “Testosterone derivatives with a carboxyalkyl substitution in position 3 and use thereof for the production of labelled steroids for determining the concentration of testosterone in a biological sample” (BIOMERIEUX, priority 2012, dated 2017)

Legend:
Type in all cases: binding
[1] = tested on: sheep anti-testosterone monoclonal antibody clone 3.6A3 (Ab3); assay: Microplate competitive testosterone immunoassay, Ab3 + Conjugate 2 of the invention, streptavidin-peroxidase/TMB; details: for B/B0% / OD450-OD630: conjugate 0.2 ng/well
Experimental: 100 μl/well of the mouse anti-goat Fe IgG monoclonal antibody (clone 9A4A5, bioMerieux) diluted to 10 μg/ml in PBS buffer 1× is distributed in a 96-well microplate (Nunc Maxisorp F96). The microplate is incubated overnight at room temperature in order to obtain adsorption of the antibody. The microplate is emptied, and then 300 μl/well of passivating buffer (buffer Tris 0.2 M pH 6.2) containing a saturating agent of the protein or peptide type, and the sheep anti-testosterone monoclonal antibody clone 3.6A3 (Ab3-bioVentix) diluted to 0.2 μg/ml are added. The microplate is incubated for 1 h at 37° C. Three washings are carried out with TBS (Tris buffered saline)-Tween®-20 0.05%. The range points used in example 10 are diluted to 1/2 in Tris buffer; 100 μl of these dilutions are distributed in the wells of the plate. After incubation for 1 h at 37° C., the wells are emptied and 0.2 ng/well of Conjugate 2 of the invention testosterone-3β-EMC-DAP-biotin in Tris buffer is added. The reaction with the conjugate is carried out for 15 minutes at 37° C., and is followed by 3 washings. 100 μl/well of streptavidin-peroxidase solution (Jackson Immunoresearch Cat. No. 016-30-084) diluted to 1/20 000 in TBS-Tween®-20 0.05%, BSA 2% is added and the microplate is incubated for 30 min at 37° C. After 3 washings, 100 μl/well of the 1-step Ultra TMB substrate (Thermo Scientific, Cat. No. 34028) is added and the microplate is incubated for 5 min at room temperature, away from the light. The reaction is then stopped by adding 100 μl of 2M sulfuric acid. The optical density (OD) at 450 nm and at 630 nm is measured in a microplate reader. For each well, the optical density at 630 nm is subtracted from the optical density at 450 nm.

[2] = tested on: anti-testosterone antibody Ab2 (mouse monoclonal IgG, clone 15H9H10); assay: VIDAS® competitive testosterone immunoassay, format Ab2 + Conjugate 1 of the invention; details: for B/B0% / Signal (RFV): conjugate 3 ng/ml
Experimental: (§1) Competition then takes place between the testosterone present in the sample and the testosterone derivative of the conjugate for the sites of the anti-testosterone antibody fixed on the cone. The washing steps are carried out with the buffer Tris-NaCl (0.05 mol/l) pH 7.4 or with diethanolamine (1.1 mol/1) pH 9.8 and make it possible to remove the compounds that are not fixed. During the final development step, the substrate 4-methylombelliferyl phosphate is aspirated and then introduced into the cone; the enzyme of the conjugate catalyzes the reaction of hydrolysis of this substrate in 4-methylombelliferone, and the fluorescence emitted from the latter is measured at 450 nm. The value of the fluorescence signal is inversely proportional to the concentration of the testosterone present in the sample. This concentration is calculated relative to a calibration curve.
(§2) For the other assays, we used the reagents of the VIDAS® testosterone kit (Cat. No 30418) and the assay protocol given in the instructions with the kit, with the following modifications: • Cones were sensitized with other anti-testosterone antibodies: 2 mouse monoclonal immunoglobulins G (IgG), the clones 19E10H6 and 15H9H10 (bioMerieux), which will be called Ab1 and Ab2 respectively, and 1 sheep monoclonal IgG, the clone testo3.6A3 (Bioventix), which will be called Ab3. As in the cone of the format of the reference assay, the anti-testosterone antibodies were captured by anti-species polyclonal antibodies adsorbed on the cone beforehand. It is a sheep anti-mouse IgG polyclonal antibody for Ab1 and Ab2, and a donkey anti-sheep IgG polyclonal antibody for Ab3. The anti-species antibodies are diluted to a concentration between 1 and 12 μg/ml in the sensitizing solution. After incubation for 6 h at +18/25° C., washing is carried out with saline solution. Then the solution of anti-testosterone antibodies containing a saturating agent of the protein or peptide type is added (concentration of the antibody: 0.01-0.2 μg/ml). Sensitization/passivation is continued at +18/25° C. overnight. Then the cones are emptied and dried. • The cones sensitized with the antibody Ab1 are tested with the VIDAS® conjugate, diluted to 1/2.5 for the tests with the monoclonal antibody. The cones sensitized with the antibodies Ab2 and Ab3 are tested with conjugate 1 of the invention prepared in example 9. This last-mentioned conjugate is used at a concentration of 3 ng/ml for the tests with the cones sensitized with the antibody Ab2 and 2.5 ng/ml for the cones sensitized with the antibody Ab3. • The conversion to dose is performed based on a standard 10-point range manufactured by supplementing woman's serum with testosterone in ethanolic solution. The nominal concentrations of each of the points are: 0.001 ng/ml-0.03 ng/ml-0.18 ng/ml-0.41 ng/ml-0.76 ng/ml-1.29 ng/ml-1.91 ng/ml-3.82 ng/ml-7.48 ng/ml-11.55 ng/ml. • The sample volume taken for each assay is 200 μl.
(§3) The standard range was measured with each assay format. Table 1 below summarizes the results obtained as RFV signal (relative fluorescence value) and B/B0% ratio, for the dilutions of the standard range. The ratio B/B0 is the signal obtained for the range point tested divided by the signal obtained for the range point 0.001 ng/ml of testosterone, multiplied by 100.
Secondly, to confirm that the format Ab2+Conjugate 1 of the invention is far more sensitive than the reference format REF, VIDAS® Testosterone kit, for which the measurement range recommended in the instructions extends from 0.1 to 13 ng/ml, these two formats were compared against serum samples obtained from the Etablissements Français du Sang (the French National Blood Service). These were 4 samples collected from women (codes with F), for whom the serum testosterone level is below 1 ng/ml, and 2 samples collected from men (codes with M). […]

[3] = tested on: anti-testosterone antibody Ab3 (sheep monoclonal IgG, clone testo3.6A3); assay: VIDAS® competitive testosterone immunoassay, format Ab3 + Conjugate 1 of the invention; details: for B/B0% / Signal (RFV): conjugate 2.5 ng/ml
Experimental: as §1, §2, §3

[4] = testosterone 0.001 ng/ml range point (diluted to 1/2)
[5] = testosterone 0.03 ng/ml range point (diluted to 1/2)
[6] = testosterone 0.18 ng/ml range point (diluted to 1/2)
[7] = testosterone 0.41 ng/ml range point (diluted to 1/2)
[8] = testosterone 0.76 ng/ml range point (diluted to 1/2)
[9] = testosterone 1.29 ng/ml range point (diluted to 1/2)
[10] = testosterone 3.82 ng/ml range point (diluted to 1/2)
[11] = testosterone 11.55 ng/ml range point (diluted to 1/2)
[12] = testosterone 0.001 ng/ml range point
[13] = testosterone 0.03 ng/ml range point
[14] = testosterone 0.18 ng/ml range point
[15] = testosterone 0.41 ng/ml range point
[16] = testosterone 0.76 ng/ml range point
[17] = testosterone 1.29 ng/ml range point
[18] = testosterone 1.91 ng/ml range point
[19] = testosterone 3.82 ng/ml range point
[20] = testosterone 7.48 ng/ml range point
[21] = testosterone 11.55 ng/ml range point

CC12CC[C@H](OCC(=O)NCCCNC(=O)CCCCC3SCC4NC(=O)NC43)C=C1CCC1C2CCC2(C)C(O)CCC12 (stereo partly drawn) [Conjugate 2 of the invention, 17-β-Hydroxy-3-β-Carboxymethoxyandrost-4-ene/Biotin]
character of the testosterone assay range versus format Ab2+Conjugate 1 on VIDAS® ([1]; FIG. 2): comparable | sensitivity of the microplate assay (comparison) ([1]; FIG. 2): more sensitive than the VIDAS® assays using the VIDAS® Conjugate | B/B0% [1, 4]: 100% | OD450-OD630 [1, 4]: 2.52 | B/B0% [1, 5]: 83% | OD450-OD630 [1, 5]: 2.10 | B/B0% [1, 6]: 74% | OD450-OD630 [1, 6]: 1.88 | B/B0% [1, 7]: 64% | OD450-OD630 [1, 7]: 1.61 | B/B0% [1, 8]: 54% | OD450-OD630 [1, 8]: 1.36 | B/B0% [1, 9]: 40% | OD450-OD630 [1, 9]: 1.00 | B/B0% [1, 10]: 17% | OD450-OD630 [1, 10]: 0.42 | B/B0% [1, 11]: 7% | OD450-OD630 [1, 11]: 0.17

17β-Hydroxy-3β-Carboxymethoxyandrost-4-ene/Alkaline Phosphatase [Conjugate 1 of the invention]
sensitivity of the assay format (comparison of formats) ([2]; FIG. 1): slightly more sensitive than the reference format | B/B0% [2, 12]: 100% | Signal (RFV) [2, 12]: 4077 RFV | B/B0% [2, 13]: 86% | Signal (RFV) [2, 13]: 3490 RFV | B/B0% [2, 14]: 72% | Signal (RFV) [2, 14]: 2935 RFV | B/B0% [2, 15]: 62% | Signal (RFV) [2, 15]: 2527 RFV | B/B0% [2, 16]: 55% | Signal (RFV) [2, 16]: 2238 RFV | B/B0% [2, 17]: 46% | Signal (RFV) [2, 17]: 1880 RFV | B/B0% [2, 18]: 42% | Signal (RFV) [2, 18]: 1729 RFV | B/B0% [2, 19]: 31% | Signal (RFV) [2, 19]: 1264 RFV | B/B0% [2, 20]: 22% | Signal (RFV) [2, 20]: 905 RFV | B/B0% [2, 21]: 16% | Signal (RFV) [2, 21]: 632 RFV | sensitivity of the assay format (comparison of formats) ([3]; FIG. 1): most sensitive | testosterone concentration giving a 50% decrease in the signal ([3]; from graph of FIG. 1): about 0.2 ng/ml | B/B0% [3, 12]: 100% | Signal (RFV) [3, 12]: 3209 RFV | B/B0% [3, 13]: 78% | Signal (RFV) [3, 13]: 2492 RFV | B/B0% [3, 14]: 53% | Signal (RFV) [3, 14]: 1700 RFV | B/B0% [3, 15]: 44% | Signal (RFV) [3, 15]: 1403 RFV | B/B0% [3, 16]: 40% | Signal (RFV) [3, 16]: 1286 RFV | B/B0% [3, 17]: 30% | Signal (RFV) [3, 17]: 960 RFV | B/B0% [3, 18]: 31% | Signal (RFV) [3, 18]: 990 RFV | B/B0% [3, 19]: 20% | Signal (RFV) [3, 19]: 644 RFV | B/B0% [3, 20]: 12% | Signal (RFV) [3, 20]: 380 RFV | B/B0% [3, 21]: 6% | Signal (RFV) [3, 21]: 205 RFV
